Experimental data: patent publication US20230129364A1, “PYRROLIDINE DERIVATIVE, AND PHARMACEUTICAL COMPOSITION FOR PREVENTING OR TREATING BETA-AMYLOID OR TAU PROTEIN-ASSOCIATED DISEASES CONTAINING SAME” (YONSEI UNIVERSITY, UNIVERSITY - INDUSTRY FOUNDATION (UIF), priority 2019, published 2023)

Tests used:
Type in all cases: biochemical
[1] = target: T1, aggregated tau protein (wild-type K18) (Homo sapiens, UniProt P10636); experiment: Tau protein aggregate degradation test (thioflavin T assay); details: pre-aggregated tau, further 5 days at 37° C., ThT fluorescence vs control = 100%
T1 construct: Tau protein (wild-type K18)
Method: Tau protein (wild-type K18) was dissolved in phosphate-buffered saline (PBS, pH 7.4) at a concentration of 1 mg/mL to prepare a tau protein solution. 0.1 mg/mL of heparin and 100 μM dithiothreitol (DTT) were added to 1 mg/mL of the tau protein solution, followed by incubation at 37° C. for 5 days to induce tau protein aggregation. The aggregated tau protein was mixed with each test compound in an amount of 50 or 500 μM such that the final concentration reached 0.5 mg/mL, followed by further incubation at 37° C. for 5 days to induce reaction.
The degradation effect of each compound on the tau aggregates was measured by thioflavin T (ThT) assay (see Example 2). More specifically, 25 μL of the reaction solution was charged in each well of a 96-well plate for fluorescence analysis and 75 μL of the prepared thioflavin-T solution was charged in each well. The reaction was allowed to proceed at room temperature in a dark laboratory for 5 minutes and then fluorescence values were measured at an excitation wavelength of 450 nm and an emission wavelength of 485 nm using a multi-mode microplate reader.
The ratio of the fluorescence value measured in the group obtained by treating with each test compound to 100% of the fluorescence value of the group (control group) obtained by treating only with tau proteins and inducing aggregation for 5 days is set forth in Table 6 below: […]

[2] = target: T2, aggregated beta-amyloid; human Aβ 1-42 (UniProtKB-P05067, a.a. 672-713) (Homo sapiens, UniProt P05067); experiment: Beta-amyloid aggregate degradation test (thioflavin T assay); details: pre-aggregated Aβ, further 3 days at 37° C., ThT fluorescence vs control = 100%
T2 construct: UniProtKB-P05067, a.a; 672-713
Method: Aβ (beta-amyloid; human A3 1-42 monomer (UniProtKB-P05067, a.a. 672-713)) was dissolved at a concentration of 10 mM in dimethyl sulfoxide (DMSO), and the resulting solution was diluted to 250 μM using distilled water, and then incubated at 37° C. for 3 days to induce aggregation. The aggregated beta-amyloid was added with each test compound in an amount of 50 or 500 μM such that the final concentration reached 25 μM, and was further cultured at 37° C. for 3 days to induce reaction. The aggregate degradation effect of each test compound was measured by thioflavin T (ThT) assay (see Example 2). Specifically, 25 μL of the reaction solution was charged in each well of a 96-well plate for fluorescence analysis and 75 μL of the prepared thioflavin-T solution was charged in each well. The reaction was allowed to proceed at room temperature in a dark laboratory for 5 minutes and then fluorescence values were measured at an excitation wavelength of 450 nm and an emission wavelength of 485 nm using a multi-mode microplate reader. The ratio of the fluorescence value measured in the group obtained by treating with each test compound to 100% of the fluorescence value of the group (control group) obtained by treating only with beta-amyloids and inducing aggregation for 3 days is set forth in Table 4 below: […]

[3] = target: T3, Tau protein (wild-type K18) (Homo sapiens, UniProt P10636); experiment: Tau protein aggregation inhibition test (thioflavin T assay); details: heparin/DTT-induced aggregation, 37° C. 5 days, ThT fluorescence vs tau-only control = 100%
T3 construct: Tau protein (wild-type K18)
Method: Tau protein (wild-type K18) was dissolved in phosphate-buffered saline (PBS, pH 7.4) at a concentration of 1 mg/mL to prepare a tau protein solution. In order to induce aggregation of tau proteins, 0.1 mg/mL of heparin and 100 μM dithiothreitol (DTT) were added to 1 mg/mL of the tau protein solution, followed by incubation at 37° C. for 5 days. At this time, the result was mixed with each test compound (50, 500 μM) such that the final concentration reached 0.5 mg/mL, followed by further incubation.
The inhibitory effect of each compound against tau aggregation was measured based on the intensity of fluorescence by thioflavin T (ThT) assay (see Example 2). More specifically, 25 μL of the reaction solution was charged in each well of a 96-well plate for fluorescence analysis, and 75 μL of the prepared thioflavin-T solution was then charged in each well. The reaction was allowed to proceed at room temperature in a dark laboratory for 5 minutes, and then fluorescence values were measured at an excitation wavelength of 450 nm and an emission wavelength of 485 nm using a multi-mode microplate reader.
The ratio of the fluorescence value measured in the group obtained by treating with each test compound to 100% of the fluorescence value of the group (control group) obtained by treating only with tau proteins and inducing aggregation for 5 days is set forth in Table 5 below: […]

T2 sequence (P05067 672-713): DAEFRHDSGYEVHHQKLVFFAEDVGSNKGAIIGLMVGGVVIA
T3 sequence (P10636 561-685 limits assumed): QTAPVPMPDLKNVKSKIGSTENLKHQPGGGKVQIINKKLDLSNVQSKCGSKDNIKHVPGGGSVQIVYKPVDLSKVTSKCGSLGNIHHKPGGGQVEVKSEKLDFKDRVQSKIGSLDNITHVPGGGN
T1 sequence (P10636 561-685 limits assumed): as above

Row | ThT fluorescence remaining (% of control) ([1]; 50 uM test compound) | ThT fluorescence remaining (% of control) ([1]; 500 uM test compound) | Beta-amyloid aggregate degradation activity (% of control) ([2]; 500 uM test compound) | Tau aggregation remaining (ThT fluorescence, % of tau-only control) ([3]; 50 uM test compound) | Tau aggregation remaining (ThT fluorescence, % of tau-only control) ([3]; 500 uM test compound) | Beta-amyloid aggregate degradation activity (% of control) ([2]; 50 uM test compound) | SMILES
1 | 62.2 % of control | 41.11 % of control | 73.30 % of control | 27.48 % of control | 16.09 % of control | – | O=C1NC(=S)S/C1=C\c1c[nH]c2cccnc12 [DN204808, (Z)-5-((1H-pyrrolo[3,2-b]pyridin-3-yl)methylene)-2-thioxothiazolidin-4-one]
2 | 14.94 % of control | 5.16 % of control | 35.83 % of control | 20.35 % of control | 1.71 % of control | 95.08 % of control | O=C1NC(=S)S/C1=C\c1csc2ccccc12 [DN204818, (Z)-5-(benzo[b]thiophen-3-ylmethylene)-2-thioxothiazolidin-4-one]
3 | 57.57 % of control | 52.83 % of control | 54.07 % of control | 60.71 % of control | 46.16 % of control | 83.66 % of control | O=C1NC(=O)/C(=C/c2c[nH]c3cccnc23)S1 [DN204289, (Z)-5-((1H-pyrrolo[3,2-b]pyridin-3-yl)methylene)thiazolidine-2,4-dione]
4 | 67.53 % of control | 50.23 % of control | 73.11 % of control | 70.66 % of control | 39.54 % of control | 97.47 % of control | O=C1NC(=S)SC1Cc1c[nH]c2ncccc12 (stereo not shown) [DN204304, 5-((1H-pyrrolo[2,3-b]pyridin-3-yl)methyl)-2-thioxothiazolidin-4-one]
5 | 81.77 % of control | 39.19 % of control | 33.65 % of control | 82.4 % of control | 29.14 % of control | 90.66 % of control | O=C1NC(=S)SC1Cc1cc[nH]c1 (stereo not shown) [DN204303, 5-((1H-pyrrol-3-yl)methyl)-2-thioxothiazolidin-4-one]
6 | 49.84 % of control | 43.06 % of control | 78.39 % of control | 87.3 % of control | 66.18 % of control | – | CCN1C(=O)/C(=C/c2c[nH]c3cccnc23)NC1=S [DN204817, (Z)-5-((1H-pyrrolo[3,2-b]pyridin-3-yl)methylene)-3-ethyl-2-thioxoimidazolidin-4-one]
7 | 51.93 % of control | 30.87 % of control | 25.32 % of control | 36.72 % of control | 32.09 % of control | 95.14 % of control | O=C1NC(=S)S/C1=C\c1ccc2occc2c1 [DN204809, (Z)-5-(benzofuran-5-ylmethylene)-2-thioxothiazolidin-4-one]
8 | 30.26 % of control | 16.48 % of control | 17.28 % of control | 13.243 % of control | 4.984 % of control | 68.90 % of control | O=C1NC(=S)S/C1=C\c1c[nH]c2ccccc12 [DN204296, (Z)-5-((1H-indol-3-yl)methylene)-2-thioxothiazolidin-4-one]
